Experimental data as given in patent publication US20060229293A1, “Compositions for the treatment of hepatitis C and methods for using compositions for the treatment of hepatitis C” (Addiction Research Institute, Inc., priority 2005, published 2006).

Columns and labels:
Assay type in all cases: in vivo, human
HCV [1] = assay: Case report, Example 1: HCV positive heroin user given ibogaine HCl; conditions: person, 25 mg/kg
Procedure: A person diagnosed as HCV positive and using ½ gram of heroin per day was administered 25 mg/kg of ibogaine HCl. Following the administration of ibogaine, heroin use ceased along with swelling of the liver and pain in the area of the liver.

HCV [2] = assay: Case report, Example 2: liver enzyme levels in HCV positive after ibogaine HCl; conditions: person, 14 mg/kg self-administered
Procedure: A person testing positive for HCV and dependent on heroin and methadone self-administered 14 mg/kg of ibogaine HCl. AST was reduced from pretreatment level of 201 to post treatment level of 25. ALT was reduced from pretreatment level of 410 to post treatment level of 50. GGT level was reduced from 155 to 33.

HCV RNA genotype 1 = assay: Case report, Example 3: HCV RNA and liver enzymes after an escalating dose regimen of ibogaine HCl
Procedure: A person testing positive for HCV RNA genotype 1, administered the following dose regimen of ibogaine HCl. Subject weighed 79 kg. Doses administered were as total doses and not mg/kg. Day 1: 10 mg ibogaine HCl. Day 2: 20 mg ibogaine HCl. Day 3: 20 mg ibogaine HCl. Day 4: 30 mg ibogaine HCl. Day 5: 50 mg ibogaine HCl. Day 6: 75 mg ibogaine HCl. Day 8: 100 mg ibogaine HCl. Day 10: 150 mg ibogaine HCl. Day 14: 300 mg ibogaine HCl. HCV RNA IU/mL was reduced from 780,000 to 644,000. Pretreatment Alkaline Phosphatase was 99, AST was 103 and ALT 195. Post treatment Alkaline Phosphatase 88, AST 89 and ALT 127. An additional 250 mg of ibogaine HCl further reduced HCV RNA IU/mL to 384,000. A final dose within this regimen of 250 mg ibogaine was administered reducing the HCV RNA IU/mL to 154,000.

HCV RNA genotype 3 = assay: Case report, Example 4: HCV RNA after ibogaine HCl over 48 hours; conditions: total of 27 mg/kg over 48 hours
Procedure: A person weighing 160 lbs tested positive HCV RNA genotype 3. RNA IU/mL was 12,600,000. Subject was administered a total of 27 mg/kg of ibogaine HCl over a period of 48 hours in the following regimen: 2 mg/kg, 2 mg/kg, 2 mg/kg, 2 mg/kg, 2 mg/kg, 2 mg/kg, 12 mg/kg, and 3 mg/kg. HCV RNA IU/mL was reduced to 50,100. Prior to ibogaine therapy patient's urine was dark and stool light. Post treatment color of urine and stool were normal.

## ibogaine HCl
HCV [1]
  pain in the area of the liver following administration: ceased
  swelling of the liver following administration: ceased
HCV [1]; using ½ gram of heroin per day
  heroin use following administration: ceased
HCV [2]; pretreatment level 201
  AST post treatment level: 25
HCV [2]; pretreatment level 410
  ALT post treatment level: 50
HCV [2]; reduced from 155
  GGT level post treatment: 33
HCV RNA genotype 1; additional 250 mg after the Day 1-14 regimen, previous level 644,000
  HCV RNA after an additional dose: 384,000 IU/mL
HCV RNA genotype 1; final dose of 250 mg within the regimen, previous level 384,000
  HCV RNA after the final dose: 154,000 IU/mL
HCV RNA genotype 1; person, 79 kg, genotype 1, total doses 10-300 mg on Days 1-14, reduced from 780,000
  HCV RNA after regimen: 644,000 IU/mL
HCV RNA genotype 1; person, genotype 1, Day 1-14 regimen, pretreatment 99
  Alkaline Phosphatase post treatment: 88
HCV RNA genotype 1; person, genotype 1, Day 1-14 regimen, pretreatment 103
  AST post treatment: 89
HCV RNA genotype 1; person, genotype 1, Day 1-14 regimen, pretreatment 195
  ALT post treatment: 127
HCV RNA genotype 3; person, 160 lbs, genotype 3, before treatment 12,600,000
  HCV RNA after treatment: 50,100 IU/mL
HCV RNA genotype 3; prior to therapy urine dark and stool light
  color of urine and stool post treatment: normal
